# Test results from patent US11654198B2, “Application of combination of polyethylene glycol and local anesthetic in non-narcotic analgesia” (JENKEM TECHNOLOGY CO., LTD. (TIANJIN), priority 2016, dated 2023).
# Experiments:
# SD rats [1] = test: Hot plate paw withdrawal time, rat plantar incision model (Example 31); assay type: in vivo
# Description: (§1) After SD rats inhale anesthesia (isoflurane), an incision of about 1 cm in length from the proximal end of the pelma to the toe is made: after the skin and fascia are cut, the plantar muscle is picked up with an ophthalmic forceps and cut longitudinally (maintaining the starting and ending point and attachment of muscles); pressing is carried out for hemostasis, physiological saline and test drugs are injected into the muscles of animal's legs, and then the pain threshold detection is performed by the hot plate method. Within 24 hours after the model is successful, the rats develop significant hyperalgesia. Qualified rats are randomly divided into 5 groups, 6 rats in each group, which are labeled as groups G1, G2, G3, G4 and G5, respectively. The plantar subcutaneous injection method for administration is used, and the grouping information of the experimental animals is shown in Table 8.
# (§2) Sensory block (hot plate paw withdrawal time): The sensory block of the rat is examined by a hot plate method, and the hot plate is heated to (56±1)° C., and one of the hind paws of the rat is placed on the hot plate, the other hind paw is in the laboratory room temperature condition, and the tested paw withdrawal time is observed and recorded. The average value of two to three times measured is recorded as a pain threshold. In order to avoid the damage of the experimental animal body, if the rat has no paw withdrawal in the hot plate experiment for more than 15 s, the paws should be removed from the hot plate, and the experimental result is recorded as 15 s. The time point for determining the paw withdrawal time of the hot plate is before administration, and 0.5 h, 1 h, 2 h, 4 h, 6 h, 8 h, 12 h, and 24 h after administration.
# SD rats [2] = test: Motor block four-level score, rat plantar incision model (Example 31); assay type: in vivo; parameters: key to motor function score: 1 = normal paw movement to 4 = complete loss of movement with gait defect; conditions: for motor function score: bupivacaine 8, conjugate 10/11/12 32/24/48 mg/kg
# Description: as §1
# (§3) Motor block (four-level score): The exercise condition of each group of rats is evaluated by the motor block four-level scoring method. The scoring criteria are: paws can be dorsiflexed, stretched, valgus and other normal exercises, scored by 1 point; paws can be dorsiflexed, bendable or after the adduction, although the paws can be stretched, the stretching ability is weakened, scored by 2 points; the paws can perform dorsiflexion, but no longer has the ability to stretch, scored by 3 points; the paws completely lose the ability of dorsiflexion, curling and stretching, and the rats produce a gait defect, scored by 4 points. The time point for measuring the motor block score is before administration, and 0.5 h, 1 h, 2 h, 4 h, 6 h, 8 h, 12 h, and 24 h after administration.
# SD rats [3] = test: Motor block four-level score (Example 30); assay type: in vivo, rat; parameters: key to motor function score: 1 = normal motor function to 4 = complete loss with gait defect; conditions: for motor function score: direct injection around sciatic nerve, conjugate 10/11/12 at 32/24/48 mg/kg (as bupivacaine)
# Description: (§4) Male Sprague-Dawley rats are used in the study, about 230-250 g when accepted, and acclimated for at least 7 days prior to the experiment. Two rats are raised in each cage and fed freely with feed and water. The environmental conditions of the breeding room are 23±2° C., and the relative humidity is 40% to 70%, alternating 12 hours of light and dark. […] The qualified rats are randomly divided into 4 groups, 4 rats in each group, which are labeled as groups G1, G2, G3, and G4, respectively. Administration by direct injection in the sciatic nerve is adopted, and with the rat's back facing up, the drug is injected around the right sciatic nerve trunk between the right hip and the right thigh.
# as §3, with “can be stretched after the adduction, the stretching” for “can be stretched, the stretching”, “points; the paw can perform” for “points; the paws can perform”
# SD rats [4] = test: Sensory block, hot plate paw withdrawal time, non-anesthetic analgesic effect of PEG-bupivacaine conjugate (Example 30); assay type: in vivo, rat; conditions: for hot plate paw withdrawal time: conjugate 10/11/12 at 32/24/48 mg/kg (as bupivacaine)
# Description: as §4
# as §2, with “the hot plate. The other hind” for “the hot plate, the other hind”, “s, the rat should be” for “s, the paws should be”, “8 h, 10 h, 12 h,” for “8 h, 12 h,”
# [5] = 0 h (after surgery, before administration), bupivacaine 8, conjugate 10/11/12 32/24/48 mg/kg
# [6] = 0.5 h after plantar subcutaneous injection, bupivacaine 8, conjugate 10/11/12 32/24/48 mg/kg
# [7] = 1 h after plantar subcutaneous injection, bupivacaine 8, conjugate 10/11/12 32/24/48 mg/kg
# [8] = 2 h after plantar subcutaneous injection, bupivacaine 8, conjugate 10/11/12 32/24/48 mg/kg
# [9] = 4 h after plantar subcutaneous injection, bupivacaine 8, conjugate 10/11/12 32/24/48 mg/kg
# [10] = 6 h after plantar subcutaneous injection, bupivacaine 8, conjugate 10/11/12 32/24/48 mg/kg
# [11] = 8 h after plantar subcutaneous injection, bupivacaine 8, conjugate 10/11/12 32/24/48 mg/kg
# [12] = 12 h after plantar subcutaneous injection, bupivacaine 8, conjugate 10/11/12 32/24/48 mg/kg
# [13] = 24 h after plantar subcutaneous injection, bupivacaine 8, conjugate 10/11/12 32/24/48 mg/kg
# [14] = base value before surgery, bupivacaine 8, conjugate 10/11/12 32/24/48 mg/kg (as bupivacaine)
# [15] = conjugate 10/11/12 at 32/24/48 mg/kg
compound,measurement,setting,value
"8-Arm-PEG-Bupivacaine, 20K [bupivacaine conjugate 12]",hot plate paw withdrawal time,SD rats [1]; [5],1.89 s
same,hot plate paw withdrawal time,SD rats [1]; [6],8.13 s
same,hot plate paw withdrawal time,SD rats [1]; [7],7.21 s
same,hot plate paw withdrawal time,SD rats [1]; [8],6.12 s
same,hot plate paw withdrawal time,SD rats [1]; [9],2.49 s
same,hot plate paw withdrawal time,SD rats [1]; [10],2.34 s
same,hot plate paw withdrawal time,SD rats [1]; [11],2.10 s
same,hot plate paw withdrawal time,SD rats [1]; [12],1.92 s
same,hot plate paw withdrawal time,SD rats [1]; [13],1.76 s
same,hot plate paw withdrawal time,SD rats [1]; [14],5.81 s
same,time after administration at which hot plate paw withdrawal time is significantly higher than vehicle group,"SD rats [1]; bupivacaine 8, conjugate 10/11/12 32/24/48 mg/kg",≤ 2 h
same,time the analgesic effect can reach,SD rats [1]; [15],2 h
same,motor function score,SD rats [2]; 0 h (before administration),1 ± 0
same,motor function score,SD rats [2]; 0.5 h,1 ± 0
same,motor function score,SD rats [2]; 1 h,1 ± 0
same,motor function score,SD rats [2]; 2 h,1 ± 0
same,motor function score,SD rats [2]; 4 h,1 ± 0
same,motor function score,SD rats [2]; 6 h,1 ± 0
same,motor function score,SD rats [2]; 8 h,1 ± 0
same,motor function score,SD rats [2]; 12 h,1 ± 0
same,motor function score,SD rats [2]; 24 h,1 ± 0
same,effect on motor function of SD rats,SD rats [2]; [15],does not affect the motor function
same,motor function score,SD rats [3]; 0 h (before administration),1 ± 0
same,motor function score,SD rats [3]; 0.5 h,1 ± 0
same,motor function score,SD rats [3]; 1 h,1 ± 0
same,motor function score,SD rats [3]; 2 h,1 ± 0
same,motor function score,SD rats [3]; 4 h,1 ± 0
same,motor function score,SD rats [3]; 6 h,1 ± 0
same,motor function score,SD rats [3]; 8 h,1 ± 0
same,motor function score,SD rats [3]; 12 h,1 ± 0
same,motor function score,SD rats [3]; 24 h,1 ± 0
same,motor scores at different time points versus vehicle group,"SD rats [3]; direct injection, conjugate 10/11/12 at 32/24/48 mg/kg",not significantly different
same,hot plate paw withdrawal time,SD rats [4]; 0.5 h after direct injection around sciatic nerve,6.49 s
same,hot plate paw withdrawal time,SD rats [4]; 2 h after direct injection around sciatic nerve,3.52 s
same,hot plate paw withdrawal time,SD rats [4]; 4 h after direct injection around sciatic nerve,4.82 s
same,hot plate paw withdrawal time,SD rats [4]; 6 h after direct injection around sciatic nerve,4.59 s
same,hot plate paw withdrawal time,SD rats [4]; 8 h after direct injection around sciatic nerve,4.34 s
same,hot plate paw withdrawal time,SD rats [4]; 10 h after direct injection around sciatic nerve,4.30 s
same,hot plate paw withdrawal time,SD rats [4]; 12 h after direct injection around sciatic nerve,2.80 s
same,hot plate paw withdrawal time,SD rats [4]; 24 h after direct injection around sciatic nerve,3.25 s
same,time after administration at which hot plate paw withdrawal time is significantly higher than vehicle group,"SD rats [4]; conjugate 10/11/12 at 32/24/48 mg/kg, direct injection",≤ 2 h
same,hot plate paw withdrawal time,SD rats [4]; l h after direct injection around sciatic nerve,6.77 s
CCCCN1CCCCC1C(=O)Nc1c(C)cccc1C (stereo not shown) [bupivacaine],hot plate paw withdrawal time,SD rats [1]; [5],1.02 s
same,hot plate paw withdrawal time,SD rats [1]; [6],7.21 s
same,hot plate paw withdrawal time,SD rats [1]; [7],6.91 s
same,hot plate paw withdrawal time,SD rats [1]; [8],1.30 s
same,hot plate paw withdrawal time,SD rats [1]; [9],1.51 s
same,hot plate paw withdrawal time,SD rats [1]; [10],1.32 s
same,hot plate paw withdrawal time,SD rats [1]; [11],2.41 s
same,hot plate paw withdrawal time,SD rats [1]; [12],1.41 s
same,hot plate paw withdrawal time,SD rats [1]; [13],1.45 s
same,hot plate paw withdrawal time,SD rats [1]; [14],4.70 s
same,motor function score,SD rats [2]; 0 h (before administration),1 ± 0
same,motor function score,SD rats [2]; 0.5 h,1 ± 0
same,motor function score,SD rats [2]; 1 h,1.75 ± 0.5
same,motor function score,SD rats [2]; 2 h,1.75 ± 0.5
same,motor function score,SD rats [2]; 4 h,1.75 ± 0.5
same,motor function score,SD rats [2]; 6 h,1.75 ± 0.5
same,motor function score,SD rats [2]; 8 h,1.75 ± 0.5
same,motor function score,SD rats [2]; 12 h,1 ± 0
same,motor function score,SD rats [2]; 24 h,1 ± 0
